Source: paper PMC9783868, “Indoline-5-Sulfonamides: A Role of the Core in Inhibition of Cancer-Related Carbonic Anhydrases, Antiproliferative Activity and Circumventing of Multidrug Resistance” (Pharmaceuticals, 2022)
Where two headings read alike, the source gives them in different places.

How the values were obtained:
[1] = target: T1, hCA I (Homo sapiens, UniProt P00915); experiment: CA inhibition, stopped-flow CO2 hydration assay; assay type: biochemical; conditions: stopped-flow technique; mean from three assays
T1 construct: made in house
T1 sequence (P00915 whole entry): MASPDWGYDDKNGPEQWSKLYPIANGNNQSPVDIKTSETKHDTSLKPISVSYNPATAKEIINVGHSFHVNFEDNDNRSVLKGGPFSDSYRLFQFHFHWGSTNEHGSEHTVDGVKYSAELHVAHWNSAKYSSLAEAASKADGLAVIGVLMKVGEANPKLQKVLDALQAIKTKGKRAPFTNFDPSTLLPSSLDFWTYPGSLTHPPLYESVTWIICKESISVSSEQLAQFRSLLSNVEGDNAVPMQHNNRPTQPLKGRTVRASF
Experimental: (§1) The CO2 hydration activity of the four hCA isoforms was monitored using an Applied Photophysics stopped-flow instrument. Phenol red (at a concentration of 0.2 mM) was used as an indicator, working at the absorbance maximum of 557 nm, with 10 mM HEPES (pH 7.4) as a buffer, and 20 mM NaClO4 (for maintaining constant the ionic strength), following the initial rates of the CA-catalyzed CO2 hydration reaction for a period of 10–100 s. To determine the kinetic parameters by Lineweaver-Burk plots and the inhibition constants, a concentration of CO2 between 1.7 to 17 mM was used. At least six measurements of the original 5–10% reaction were used to assess the initial velocity for each inhibitor. The uncatalyzed rates were determined and detracted from the total observed rates. Stock inhibitor solutions (10–100 mM) were prepared in distilled-deionized water, and dilutions up to 0.1 nM were done with the buffer test. […] The inhibition constants were obtained by non-linear least-squares methods using PRISM 6 and the Cheng-Prusoff equation, as reported earlier, and represent the mean from at least three different determinations.

[2] = target: T2, hCA II (Homo sapiens, UniProt P00918); experiment: CA inhibition, stopped-flow CO2 hydration assay; assay type: biochemical; conditions: stopped-flow technique; mean from three assays
T2 construct: made in house
Experimental: as §1

[3] = target: T3, hCA IX (Homo sapiens, UniProt Q16790); experiment: CA inhibition, stopped-flow CO2 hydration assay; assay type: biochemical; conditions: stopped-flow technique; mean from three assays
T3 construct: made in house
Experimental: as §1

[4] = target: T4, hCA XII (Homo sapiens, UniProt O43570); experiment: CA inhibition, stopped-flow CO2 hydration assay; assay type: biochemical; conditions: stopped-flow technique; mean from three assays
T4 construct: made in house
T4 sequence (O43570 25-354): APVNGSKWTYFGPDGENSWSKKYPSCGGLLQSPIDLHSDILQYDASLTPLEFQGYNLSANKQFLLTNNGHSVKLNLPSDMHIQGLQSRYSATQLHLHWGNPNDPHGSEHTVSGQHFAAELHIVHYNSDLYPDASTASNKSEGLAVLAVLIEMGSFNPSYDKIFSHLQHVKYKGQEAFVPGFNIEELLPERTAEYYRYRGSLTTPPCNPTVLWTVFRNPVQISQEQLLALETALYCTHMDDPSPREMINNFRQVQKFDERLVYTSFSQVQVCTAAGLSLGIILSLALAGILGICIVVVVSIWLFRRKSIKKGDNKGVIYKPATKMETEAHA
Experimental: as §1

[5] = system: MCF7 cells; experiment: Antiproliferative activity, MTT test; assay type: cell-based; conditions: Homo sapiens, MTT assay after 72 h exposure
Experimental: A series of synthesized indoline-5-sulfonamides was tested on the MCF7 cancer cell line under normoxia and hypoxia using the MTT test.
The MDR subline K562/4 [77] (kind gift of Dr. Alexander Shtil, Blokhin N.N. National Medical Research Center of Oncology) was obtained by stepwise selection of K562 cells for survival under continuous exposure to Dox. This subline expresses the MDR1 gene and functional P-gp and is characterized by a high resistance index for Dox. […] Cells in the logarithmic phase of growth were used in the experiments. The growth inhibitory activity of compounds was assessed by the MTT test based on the metabolism of the MTT reagent (3-[4,5-dimethylthiazol-2-yl]-2,5-diphenyltetrazolium bromide) (Applichem) in living cells, with modifications as described previously in [49]. Compounds at different concentrations in 100 μL of the appropriate medium were added, and the cells were grown for 72 h. The hypoxia (1% O2) conditions were simulated in Binder multigas incubator, as described in [49]. After incubation with compounds, the medium was removed, the MTT reagent that was dissolved in the medium was added to the final concentration of 0.2 mg/mL to each well, and the incubation was performed for 2 h. Then the cell supernatants were removed, and purple formazan crystals were dissolved in 100% DMSO (350 μL per well). Culture plates were gently shaken, and the absorbance was measured at 571 nm with a reference wavelength of 630 nm on a MultiScan reader (ThermoFisher, Waltham, MA, USA). The viability of the cells was expressed as a percentage of the control. Dose-response curves were analyzed by regression analysis using sigmoid curves (Log(concentration) vs. normalized absorbance).
All results were reported as means ± SD. One-way analysis of variance was used for the analysis of data. Differences were defined as significant at p < 0.05. GraphPad Prism7 (GraphPad Software, San Diego, CA, USA) was used for the determination of the half-maximal inhibitory concentration (IC50) values.

[6] = hypoxia (1% O2), read-out: IC50 against MCF7 Cells, Hypoxia
[7] = normoxia, read-out: IC50 against MCF7 Cells, Normoxia

Work on `NS(=O)(=O)c1ccc2c(c1)CCN2C(=O)c1ccc(F)cc1` [Compound 4c, 1-(4-Fluorobenzoyl)indoline-5-sulfonamide] yielded a Ki [1] of 88.3 nM, a Ki [2] of 9.5 nM and a Ki [3] of 2250 nM. The Ki [4] was > 10000 nM, the IC50 [5, 6] was 32.7 ± 2.8 µM and the IC50 [5, 7] was 40.6 ± 3.8 µM. For the same compound, the melting point was > 250 °C.

Work on `NS(=O)(=O)c1ccc2c(c1)CCN2C(=O)c1c(F)cccc1F` [Compound 4d, 1-(2,6-Difluorobenzoyl)indoline-5-sulfonamide] yielded a Ki [1] of 268 nM, a Ki [2] of 9.1 nM and a Ki [3] of 1330 nM. The Ki [4] was 41.3 nM, the IC50 [5, 6] was 35.9 ± 3.4 µM and the IC50 [5, 7] was > 50 µM. For the same compound, the melting point was 244 to 246 °C.

In the case of `CSc1ccc(C(=O)N2CCc3cc(S(N)(=O)=O)ccc32)cc1` [Compound 4n, 1-(4-(Methylthio)benzoyl)indoline-5-sulfonamide], the Ki [1] is reported as 71.4 nM, the Ki [2] is reported as 9.3 nM and the Ki [3] is reported as 1990 nM. For the same compound, the Ki [4] was 91 nM, the IC50 [5, 6] was > 50 µM and the IC50 [5, 7] was 18.4 ± 1.6 µM. For the same compound, the melting point was 245 to 247 °C.

For `NS(=O)(=O)c1ccc2c(c1)CCN2C(=O)C1CCCC1` [Compound 4s, 1-(Cyclopentanecarbonyl)indoline-5-sulfonamide], the Ki [1] was 60.9 nM, the Ki [2] was 7.1 nM and the Ki [3] was 133 nM. The Ki [4] was 88.1 nM, the IC50 [5, 6] was > 50 µM and the IC50 [5, 7] was > 50 µM. For the same compound, the melting point was 233 to 235 °C.

With `NS(=O)(=O)c1ccc2c(c1)CCN2C(=O)c1ccc([N+](=O)[O-])cc1` [Compound 4p, 1-(4-Nitrobenzoyl)indoline-5-sulfonamide] the Ki [1] was 60.5 nM, the Ki [2] was 42.2 nM and the Ki [3] was 2110 nM. For the same compound, the Ki [4] was 198 nM, the IC50 [5, 6] was 39.9 ± 3.5 µM and the IC50 [5, 7] was 48.8 ± 4.4 µM. For the same compound, the melting point was 247 to 249 °C.

`COc1ccc(C(=O)N2CCc3cc(S(N)(=O)=O)ccc32)cc1` [Compound 4k, 1-(4-Methoxybenzoyl)indoline-5-sulfonamide] gave a Ki [1] of 77.7 nM, a Ki [2] of 9.3 nM and a Ki [3] of 173 nM. For the same compound, the Ki [4] was > 10000 nM, the IC50 [5, 6] was > 50 µM and the IC50 [5, 7] was > 50 µM. The melting point was 240 to 242 °C.

For `NS(=O)(=O)c1ccc2c(c1)CCN2C(=O)c1ccccc1[N+](=O)[O-]` [Compound 4o, 1-(2-Nitrobenzoyl)indoline-5-sulfonamide], the Ki [1] was 83.4 nM, the Ki [2] was 4.5 nM and the Ki [3] was > 10000 nM. For the same compound, the Ki [4] was 120 nM, the IC50 [5, 6] was 39.5 ± 3.4 µM and the IC50 [5, 7] was 43.7 ± 3.7 µM. The melting point was 238 to 240 °C.

`NS(=O)(=O)c1ccc2c(c1)CCN2C(=O)c1ccncc1` [Compound 4q, 1-Isonicotinoylindoline-5-sulfonamide] showed a Ki [1] of 64 nM, a Ki [2] of 12.5 nM and a Ki [3] of 2390 nM. The Ki [4] was > 10000 nM, the IC50 [5, 6] was > 50 µM and the IC50 [5, 7] was > 50 µM. The melting point was > 250 °C.

For `COc1cccc(C(=O)N2CCc3cc(S(N)(=O)=O)ccc32)c1` [Compound 4j, 1-(3-Methoxybenzoyl)indoline-5-sulfonamide], the Ki [1] was 67.7 nM, the Ki [2] was 9.2 nM and the Ki [3] was > 10000 nM. For the same compound, the Ki [4] was 110 nM, the IC50 [5, 6] was > 50 µM and the IC50 [5, 7] was 46.2 ± 3.6 µM. For the same compound, the melting point was 225 to 227 °C.

With `NS(=O)(=O)c1ccc2c(c1)CCN2Cc1ccccc1` [Compound 10, 1-Benzylindoline-5-sulfonamide] the Ki [1] was 41 nM, the Ki [2] was 3 nM and the Ki [3] was > 10000 nM. The Ki [4] was > 10000 nM, the IC50 [5, 6] was 34.8 ± 3.2 µM and the IC50 [5, 7] was 23.6 ± 2 µM. The melting point was 144 to 146 °C.

Work on `NS(=O)(=O)c1ccc2c(c1)CCN2C(=O)c1cccs1` [Compound 4r, 1-(Thiophene-2-carbonyl)indoline-5-sulfonamide] yielded a Ki [1] of 42.2 nM, a Ki [2] of 5 nM and a Ki [3] of 177 nM. For the same compound, the Ki [4] was 147 nM, the IC50 [5, 6] was 39.1 ± 3.9 µM and the IC50 [5, 7] was 47.7 ± 3.8 µM. For the same compound, the melting point was > 250 °C.

For `COc1ccc(C(=O)N2CCc3cc(S(N)(=O)=O)ccc32)c(OC)c1` [Compound 4l, 1-(2,4-Dimethoxybenzoyl)indoline-5-sulfonamide], the Ki [1] was 71.5 nM, the Ki [2] was 4 nM and the Ki [3] was 203 nM. The Ki [4] was 113 nM, the IC50 [5, 6] was > 50 µM and the IC50 [5, 7] was 37 ± 3 µM. For the same compound, the melting point was 249 to 251 °C.

With `NS(=O)(=O)c1ccc2c(c1)CCN2C(=O)c1ccc(Cl)cc1` [Compound 4g, 1-(4-Chlorobenzoyl)indoline-5-sulfonamide] the Ki [1] was 242 nM, the Ki [2] was 66.2 nM and the Ki [3] was > 10000 nM. For the same compound, the Ki [4] was 57 nM, the IC50 [5, 6] was 24.2 ± 2.1 µM and the IC50 [5, 7] was 36.5 ± 3.3 µM. The melting point was > 250 °C.

With `NS(=O)(=O)c1ccc2c(c1)CCC2NC(=O)c1c(F)c(F)c(F)c(F)c1F` (centres unmarked) [Compound 3, reference compound] the IC50 [5, 6] was > 50 µM and the IC50 [5, 7] was > 50 µM.

For `NS(=O)(=O)c1ccc2c(c1)CCN2C(=O)c1ccc(Cl)c(Cl)c1` [Compound 4h, 1-(3,4-Dichlorobenzoyl)indoline-5-sulfonamide], the Ki [1] was 350 nM, the Ki [2] was 54 nM and the Ki [3] was > 10000 nM. It also gave a Ki [4] of 56 nM, an IC50 [5, 6] of 48.7 ± 4.5 µM and an IC50 [5, 7] of 35.2 ± 3.5 µM. The melting point was > 250 °C.

`NS(=O)(=O)c1ccc2c(c1)CCN2C(=O)CC1CCCC1` [Compound 4t, 1-(2-Cyclopentylacetyl)indoline-5-sulfonamide] showed a Ki [1] of 51.6 nM, a Ki [2] of 3.5 nM and a Ki [3] of 177 nM. For the same compound, the Ki [4] was > 10000 nM, the IC50 [5, 6] was 36 ± 3.3 µM and the IC50 [5, 7] was 38 ± 3.5 µM. For the same compound, the melting point was 184 to 186 °C.

For `Cc1cccc(C(=O)N2CCc3cc(S(N)(=O)=O)ccc32)c1` [Compound 4i, 1-(3-Methylbenzoyl)indoline-5-sulfonamide], the Ki [1] was 220 nM, the Ki [2] was 36.1 nM and the Ki [3] was > 10000 nM. For the same compound, the Ki [4] was 93.9 nM, the IC50 [5, 6] was 43.6 ± 4 µM and the IC50 [5, 7] was > 50 µM. For the same compound, the melting point was 247 to 249 °C.

In the case of `NS(=O)(=O)c1ccc2c(c1)CCN2C(=O)C1CCCCC1` [Compound 4u, 1-(Cyclohexanecarbonyl)indoline-5-sulfonamide], the Ki [1] is reported as 67 nM, the Ki [2] is reported as 1.8 nM and the Ki [3] is reported as 223 nM. For the same compound, the Ki [4] was > 10000 nM, the IC50 [5, 6] was 39.2 ± 3.4 µM and the IC50 [5, 7] was 37.1 ± 3.5 µM. The melting point was > 250 °C.

In the case of `NS(=O)(=O)c1ccc2c(c1)CCN2C(=O)c1ccccc1` [Compound 4a, 1-Benzoylindoline-5-sulfonamide], the Ki [1] is reported as 79 nM, the Ki [2] is reported as 5.4 nM and the Ki [3] is reported as > 10000 nM. For the same compound, the Ki [4] was 258 nM, the IC50 [5, 6] was 36.9 ± 3.5 µM and the IC50 [5, 7] was > 50 µM. The melting point was > 250 °C.
